From patent publication EP0934259B1, “BETA-SULFONAMIDO HYDROXAMIC ACIDS AS MATRIX METALLOPROTEINASE AND TACE INHIBITORS” (American Cyanamid Company, priority 1996, dated 1998)

What was measured:
Type in all cases: biochemical
[1] = target: T1, TACE (Homo sapiens, UniProt P78536); assay: TACE inhibition (fluorescent peptidyl substrate assay)
T1 construct: purchased Immunex
Method: Using 96-well black microtiter plates, each well receives a solution composed of 10 µL TACE (Immunex, final concentration 1µg/mL), 70µL Tris buffer, pH 7.4 containing 10% glycerol (final concentration 10 mM), and 10 µL of test compound solution in DMSO (final concentration 1µM, DMSO concentration <1%) and incubated for 10 minutes at room temperature. The reaction is initiated by addition of a fluorescent peptidyl substrate (final concentration 100 µM) to each well and then shaking on a shaker for 5 sec.
The reaction is read (excitation 340 nm, emission 420 nm) for 10 min. and the increase in fluorescence over time is plotted as a linear line. The slope of the line is calculated and represents the reaction rate.
The linearity of the reaction rate is confirmed (r^2 >0.85). The mean (x±sem) of the control rate is calculated and compared for statistical significance (p<0.05) with drug-treated rates using Dunnett's multiple comparison test. Dose-response relationships can be generate using multiple doses of drug and IC50 values with 95% CI are estimated using linear regression.

[2] = target: T2, MMP-1 (Homo sapiens, UniProt P03956); assay: MMP-1 inhibition (thiopeptide or fluorescent peptide substrate assay)
T2 sequence (P03956 100-469): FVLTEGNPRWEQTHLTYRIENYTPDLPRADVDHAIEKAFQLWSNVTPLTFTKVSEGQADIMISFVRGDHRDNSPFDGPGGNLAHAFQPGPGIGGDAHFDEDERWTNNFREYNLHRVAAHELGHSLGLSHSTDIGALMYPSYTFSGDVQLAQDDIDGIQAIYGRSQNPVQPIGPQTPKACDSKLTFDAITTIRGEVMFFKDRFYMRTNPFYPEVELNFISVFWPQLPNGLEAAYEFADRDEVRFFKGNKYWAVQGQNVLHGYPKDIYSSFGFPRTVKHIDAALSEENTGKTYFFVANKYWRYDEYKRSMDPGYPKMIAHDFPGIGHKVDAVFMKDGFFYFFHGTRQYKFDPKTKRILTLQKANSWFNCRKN
Method: (§1) These assays are based on the cleavage of a thiopeptide substrates such as Ac-Pro-Leu-Gly(2-mercapto-4-methyl-pentanoyl)-Leu-Gly-OEt by the matrix metalloproteinases MMP-1, MMP-13 (collagenases) or MMP-9 (gelatinase), which results in the release of a substrate product that reacts colorimetrically with DTNB (5,5'-dithiobis(2-nitro-benzoic acid)). The enzyme activity is measured by the rate of the color increase. The thiopeptide substrate is made up fresh as a 20 mM stock in 100% DMSO and the DTNB is dissolved in 100% DMSO as a 100 mM stock and stored in the dark at room temperature. […] The assay buffer, enzyme, vehicle or inhibitor, and DTNB/substrate are added in this order to a 96 well plate (total reaction volume of 200 µl) and the increase in color is monitored spectrophotometrically for 5 minutes at 405 nm on a plate reader and the increase in color over time is plotted as a linear line.
(§2) Alternatively, a fluorescent peptide substrate is used. […] Upon cleavage of the substrate by an MMP, the fluorescence that is generated is quantitated on the fluorescence plate reader. […] The reaction is read (excitation 340 nm, emission 444 nm) for 10 min, and the increase in fluorescence over time is plotted as a linear line.
(§3) For either the thiopeptide or fluorescent peptide assays, the slope of the line is calculated and represents the reaction rate. […]

[3] = target: MMP-9 (Homo sapiens, UniProt P14780); assay: MMP-9 inhibition (thiopeptide or fluorescent peptide substrate assay)
Chain of MMP-9 (P14780 94-707): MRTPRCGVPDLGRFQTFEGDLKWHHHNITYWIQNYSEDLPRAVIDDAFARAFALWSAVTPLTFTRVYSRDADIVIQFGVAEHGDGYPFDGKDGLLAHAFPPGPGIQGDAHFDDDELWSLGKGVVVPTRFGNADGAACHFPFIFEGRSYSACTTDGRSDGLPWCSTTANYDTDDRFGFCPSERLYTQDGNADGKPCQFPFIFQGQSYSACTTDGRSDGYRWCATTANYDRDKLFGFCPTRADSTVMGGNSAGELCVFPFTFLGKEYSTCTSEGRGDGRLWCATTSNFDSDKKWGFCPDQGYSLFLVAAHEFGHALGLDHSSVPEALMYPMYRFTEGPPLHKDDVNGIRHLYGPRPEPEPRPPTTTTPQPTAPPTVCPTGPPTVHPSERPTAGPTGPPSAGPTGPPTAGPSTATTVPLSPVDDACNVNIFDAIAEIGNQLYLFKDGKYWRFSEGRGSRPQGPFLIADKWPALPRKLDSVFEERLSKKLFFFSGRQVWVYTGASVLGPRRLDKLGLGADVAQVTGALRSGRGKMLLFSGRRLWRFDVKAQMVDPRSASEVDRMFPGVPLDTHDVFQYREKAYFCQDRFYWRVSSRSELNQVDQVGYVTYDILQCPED
Method: as §1, §2, §3

T1 sequence (P78536 215-824): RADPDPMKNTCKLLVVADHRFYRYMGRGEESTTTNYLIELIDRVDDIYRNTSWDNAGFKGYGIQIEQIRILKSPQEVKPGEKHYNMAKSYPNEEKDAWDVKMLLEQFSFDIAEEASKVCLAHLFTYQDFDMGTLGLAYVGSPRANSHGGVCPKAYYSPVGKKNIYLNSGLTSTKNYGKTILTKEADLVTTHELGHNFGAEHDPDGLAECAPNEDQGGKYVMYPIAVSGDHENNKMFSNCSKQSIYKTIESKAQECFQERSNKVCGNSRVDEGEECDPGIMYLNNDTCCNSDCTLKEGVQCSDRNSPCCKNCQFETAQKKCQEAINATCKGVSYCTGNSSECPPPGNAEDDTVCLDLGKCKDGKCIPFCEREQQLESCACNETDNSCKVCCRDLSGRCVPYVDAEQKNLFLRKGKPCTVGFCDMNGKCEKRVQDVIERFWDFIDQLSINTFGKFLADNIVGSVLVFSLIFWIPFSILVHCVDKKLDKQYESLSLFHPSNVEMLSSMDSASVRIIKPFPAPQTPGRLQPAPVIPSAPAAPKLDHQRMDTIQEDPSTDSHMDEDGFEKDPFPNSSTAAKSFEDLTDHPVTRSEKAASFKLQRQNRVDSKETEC

IC50 [1] [nM]	IC50 [2] [nM]	IC50 [3] [nM]	inhibition at 1 µM ([1]; read-out: TACE % inhibition at 1 µM concentration) [%]	Structure (SMILES)
1610	176	181		COc1ccc(S(=O)(=O)N(Cc2ccccc2)[C@@H]2CCCC[C@H]2C(=O)NO)cc1 (relative stereo) [Example 9, (trans)-2-[Benzyl-(4-methoxy-benzenesulfonyl)-amino]-cyclohexanecarboxylic acid hydroxyamide]
	616	275	24	COc1ccc(S(=O)(=O)N(Cc2ccccc2)[C@H]2CCCC[C@H]2C(=O)NO)cc1 (relative stereo) [Example 10, (cis)-2-[Benzyl-(4-methoxy-benzenesulfonyl)-amino]-cyclohexanecarboxylic acid hydroxyamide]
